Paper PMC6370995, “Phase I study of PF‐04895162, a Kv7 channel opener, reveals unexpected hepatotoxicity in healthy subjects, but not rats or monkeys: clinical evidence of disrupted bile acid homeostasis” (Pharmacology Research & Perspectives, 2019)
Like-named read-outs stand apart in the source and are kept apart here.

Assays:
MDR3 = biological target: T1, MDR3 (Homo sapiens, UniProt P21439); test: MDR3 inhibition/activation in human hepatocytes (d9-choline to d9-phosphatidylcholine); assay type: cell-based; conditions: 200 μmol/L, N = 3
T1 construct: biotransformation of d 9‐choline to d 9‐phosphatidylcholine in human hepatocytes; host or cells: human hepatocytes
Text: […]

[1] = 6-Month Oral Toxicity Study in Sprague Dawley Rats; assay type: in vivo, rat; conditions: Sprague-Dawley, rat, plasma, oral
Procedure: (§1) In the longer-term studies Sprague-Dawley rats were administered PF-04895162 once daily for 28 days or 6 months at doses up to 100 mg/kg/day. […] The drug was well absorbed into the systemic circulation of male and female rats following oral administration for 6 months.

Sprague-Dawley rats = test: 6-Month Oral Toxicity Study in Sprague Dawley Rats; assay type: in vivo, rat
Procedure: as §1

[2] = Phase 1 clinical study in healthy subjects: plasma pharmacokinetics and food effect; assay type: in vivo, human
Procedure: A randomized, double‐blind, third‐party open (i.e., subject and Investigator blind, and Sponsor open), placebo‐controlled study was conducted in healthy subjects to investigate the safety, tolerability, and pharmacokinetics of single and multiple oral doses of PF‐04895162 and to characterize the effect of food on the pharmacokinetics of a single oral dose of PF‐04895162. The study was conducted in accordance with the International Conference on Harmonization guideline for Good Clinical Practice and the principles of the Declaration of Helsinki and was approved by the local independent ethics committee. All subjects gave written informed consent prior to participation in the study. The study was planned as a parallel group, dose escalation study in four cohorts of 10 subjects each, however, the study was terminated prematurely and only Cohort 1 was conducted. After an initial screening visit to confirm eligibility, subjects in Cohort 1 (Figure 1) received single oral doses of 300 mg PF‐04895162 in Period 1 (under fasting conditions) and Period 2 (under fed conditions), and then 300 mg BID PF‐04895162 or placebo for 14 days (under fasting conditions) in Period 3 (the final dose was administered on the morning of Day 14). In Period 2, subjects were given a high‐fat breakfast 25 minutes prior to dosing which had to be consumed within 20 minutes. In all periods, subjects were fasted for at least 8 hours prior to morning dosing (except for breakfast in Period 2), and received lunch and dinner approximately 4 and 9‐10 hours after the morning dose, respectively. In Period 3, subjects were randomized so that eight subjects received PF‐04895162 and two subjects received placebo. The single doses in Periods 1 and 2, and the first dose in Period 3 were each separated by 3 days. A follow‐up visit was conducted 7‐14 days after the final dose. The ClinicalTrials.gov identifier was NCT01691274.
Safety was assessed throughout the study by monitoring adverse events, vital signs (blood pressure, pulse rate, and body temperature), 12‐lead ECGs, and physical examinations. Blood samples for safety laboratory assessments were collected prior to and 24 hours after the first single dose of PF‐04895162 (Day 1 and 2 of Period 1), and in Period 3 on Days 7, 14, and 21 (additional samples were also collected in response to emerging safety data). The Columbia suicide severity rating scale (C‐SSRS) was also conducted at screening or baseline and at the follow‐up visit. Blood samples for pharmacokinetic profiles of PF‐04895162 were collected from predose to 72 hours after each single dose (Periods 1 and 2), and up to 12 and 48 hours after morning dosing on Days 7 and 14, respectively, in Period 3. Additional trough samples were also collected on Days 5, 6, 12, and 13 of Period 3.
The sample size of 10 subjects per cohort was chosen based on practical considerations and was considered sufficient to provide adequate safety information at each dose level. To assess the effect of food on the pharmacokinetics of PF‐04895162, natural log transformed area under the plasma concentration‐time curve (AUC) from time 0 to the last measured time point (AUClast), AUC from time 0 extrapolated to infinity (AUCinf) and maximum plasma concentration (Cmax) were analyzed using a mixed effects model with treatment (fed or fasted) as a fixed effect and subject as a random effect. Estimates of the adjusted mean differences (Fed ‐ Fasted) and corresponding 90% confidence intervals (CIs) were obtained from the model. The adjusted mean differences and 90% CIs for the differences were exponentiated to provide estimates of the ratio of adjusted geometric means (Fed/Fasted) and 90% CIs for the ratios. No formal hypothesis testing was conducted.

[3] = system: liver mitochondrial function; test: mitochondrial state 3/4 respiration in the presence of glutamate/malate; assay type: biochemical; conditions: N = 2
Text: […]

[4] = 300 mg single dose, high-fat breakfast vs fasted

T1 sequence (P21439 whole entry): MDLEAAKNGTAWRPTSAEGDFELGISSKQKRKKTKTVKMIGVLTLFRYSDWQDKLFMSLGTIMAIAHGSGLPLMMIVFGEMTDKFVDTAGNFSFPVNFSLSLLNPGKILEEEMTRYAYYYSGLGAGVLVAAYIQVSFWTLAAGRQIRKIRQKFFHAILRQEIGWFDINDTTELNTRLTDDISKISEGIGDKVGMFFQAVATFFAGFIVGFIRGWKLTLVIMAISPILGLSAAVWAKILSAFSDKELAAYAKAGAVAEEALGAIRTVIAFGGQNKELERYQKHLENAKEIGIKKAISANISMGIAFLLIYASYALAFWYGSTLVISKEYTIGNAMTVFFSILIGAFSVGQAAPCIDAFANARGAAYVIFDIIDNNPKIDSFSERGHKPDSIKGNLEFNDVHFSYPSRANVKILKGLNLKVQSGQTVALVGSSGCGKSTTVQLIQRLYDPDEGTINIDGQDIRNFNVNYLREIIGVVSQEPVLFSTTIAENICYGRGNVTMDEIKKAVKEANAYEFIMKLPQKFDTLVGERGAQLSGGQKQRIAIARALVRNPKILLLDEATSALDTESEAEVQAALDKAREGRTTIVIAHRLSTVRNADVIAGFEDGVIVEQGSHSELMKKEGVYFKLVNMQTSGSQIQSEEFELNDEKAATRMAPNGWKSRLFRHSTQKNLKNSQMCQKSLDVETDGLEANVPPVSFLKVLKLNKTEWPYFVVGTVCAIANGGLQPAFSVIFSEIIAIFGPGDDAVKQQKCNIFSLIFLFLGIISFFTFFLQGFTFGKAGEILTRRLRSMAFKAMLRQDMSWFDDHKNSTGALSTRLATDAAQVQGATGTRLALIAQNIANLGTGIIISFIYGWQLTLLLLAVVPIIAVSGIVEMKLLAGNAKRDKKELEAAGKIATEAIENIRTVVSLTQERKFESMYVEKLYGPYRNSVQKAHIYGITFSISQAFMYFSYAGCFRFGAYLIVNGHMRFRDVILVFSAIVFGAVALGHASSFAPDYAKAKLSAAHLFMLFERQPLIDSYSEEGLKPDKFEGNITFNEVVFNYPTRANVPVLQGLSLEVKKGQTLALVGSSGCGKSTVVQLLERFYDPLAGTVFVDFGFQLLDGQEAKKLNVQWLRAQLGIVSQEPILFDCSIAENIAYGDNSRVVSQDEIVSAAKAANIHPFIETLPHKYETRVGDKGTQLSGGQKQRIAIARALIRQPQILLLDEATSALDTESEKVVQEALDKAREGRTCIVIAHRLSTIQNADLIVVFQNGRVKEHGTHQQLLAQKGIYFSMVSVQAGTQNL

For `O=C(Cc1ccc(F)cc1)Nn1c(C2CC2)nc2cc(F)ccc2c1=O` [PF‐04895162, N‐(2‐cyclopropyl‐7‐fluoro‐4‐oxoquinazolin‐3(4H)‐yl)‐2‐(4‐fluorophenyl)ethanamide], the “effect on MDR3 activity” value (MDR3) was “stimulation”, the Cmax ([1]; both sexes, 100 mg/kg/day, studies >1 month in duration, read-out: total Cmax concentrations in the rat (male-female)) was 6.9 to 15.1 µM and the Cmax ([1]; female, Day 1, 100 mg/kg/day, read-out: Total Cmax, female rats) was 5350 ng/mL. The Cmax ([1]; male, Day 1, 100 mg/kg/day, read-out: Total Cmax, male rats) was 2460 ng/mL, the liver weights (Sprague-Dawley rats; 6 months, up to 100 mg/kg/day) was “Increased liver weights” and the deaths (Sprague-Dawley rats; 10, 30 and 100 mg/kg/day, 6 months) was “no test-article related deaths”. The “accumulation of parent drug / induction of drug metabolizing enzymes” value (Sprague-Dawley rats; by the end of the 6 month study) was “no evidence of accumulation of parent drug or any apparent induction of drug metabolizing enzymes”, the “Microscopic changes in liver” value (Sprague-Dawley rats; females at 30 mg/kg/day and males and females at 100 mg/kg/day for 6 months) was “centrilobular hypertrophy” and the body temperature (Sprague-Dawley rats; females only, Days 1 and 91 at 30 and 100 mg/kg/day) was “mild decrease in body temperature”. The Mean food consumption (Sprague-Dawley rats; males and females at 100 mg/kg/day, entire 6-month period) was “less compared to controls”, the clinical chemistry changes (Sprague-Dawley rats; males and/or females at 30 and/or 100 mg/kg/day) was “higher phosphorus, potassium, bilirubin, and cholesterol values and lower chloride and glucose levels” and the Mean body weights (Sprague-Dawley rats; males at 30 and 100 mg/kg/day, females at 100 mg/kg/day) was “lower compared to controls”. The transaminases (Sprague-Dawley rats; once daily for 6 months, up to 100 mg/kg/day) was “No transaminase elevations”, the “AUCinf, Ratio (90% Confidence Interval) of Adjusted Means, Fed vs Fasted” value [2, 4] was 113.27 (102.99, 124.58) % and the “AUClast, Ratio (90% Confidence Interval) of Adjusted Means, Fed vs Fasted” value [2, 4] was 116.85 (106.90, 127.73) %. The “Cmax, Ratio (90% Confidence Interval) of Adjusted Means, Fed vs Fasted” value [2, 4] was 202.92 (178.28, 230.95) %, the AUC ([2]; human, plasma, oral, 300 mg, 300 mg BID, Day 7, subject with the highest ALT values, read-out: AUCtau, Subject 8) was 93000 ng·h/mL and the Cmax ([2]; human, plasma, oral, 300 mg, 300 mg BID, Day 7, subject with the highest ALT values, read-out: Cmax, Subject 8 (converted)) was 10800 ng/mL. It also gave an AUC ([2]; human, plasma, oral, 300 mg, Period 1, 300 mg fasted, Day 1 (N = 10), 12 h interval, geometric mean (%CV), read-out: AUCtau) of 40800 ng·h/mL, a half-life ([2]; human, plasma, oral, 300 mg, Period 1, 300 mg fasted, Day 1 (N = 10), arithmetic mean ± SD, read-out: t½, terminal half-life (converted)) of 7.88 ± 3.2 h and a Cmax ([2]; human, plasma, oral, 300 mg, Period 1, 300 mg fasted, Day 1 (N = 10), geometric mean (%CV), read-out: Cmax) of 4510 ng/mL. For the same compound, the Tmax ([2]; human, plasma, oral, 300 mg, Period 1, 300 mg fasted, Day 1 (N = 10), median (range)) was 5 h, the Cmax ([2]; human, plasma, oral, 300 mg, Period 1, 300 mg fasted, Day 1 (N = 10), total concentration, read-out: Cmax) was 12.7 µM and the half-life ([2]; human, plasma, oral, 300 mg, Period 2, 300 mg fed, Day 1 (N = 10), arithmetic mean ± SD, read-out: t½, terminal half-life (converted)) was 5.21 ± 1.17 h. For the same compound, the Cmax ([2]; human, plasma, oral, 300 mg, Period 2, 300 mg fed, Day 1 (N = 10), geometric mean (%CV), read-out: Cmax) was 9150 ng/mL, the Tmax ([2]; human, plasma, oral, 300 mg, Period 2, 300 mg fed, Day 1 (N = 10), median (range)) was 4 h and the Cmax ([2]; human, plasma, oral, 300 mg, Period 2, 300 mg fed, Day 1 (N = 10), total concentration, read-out: Cmax) was 25.8 µM. For the same compound, the Cmax at 7 day ([2]; human, plasma, oral, 300 mg, Period 3, 300 mg BID fasted, Day 7 (N = 7), geometric mean (%CV)) was 9430 ng/mL, the AUC ([2]; human, plasma, oral, 300 mg, Period 3, 300 mg BID fasted, Day 7 (N = 7), geometric mean (%CV), read-out: AUCtau) was 85200 ng·h/mL and the Tmax at 7 day ([2]; human, plasma, oral, 300 mg, Period 3, 300 mg BID fasted, Day 7 (N = 7), median (range)) was 2 h. For the same compound, the Cmax at 7 day ([2]; human, plasma, oral, 300 mg, Period 3, 300 mg BID fasted, Day 7 (N = 7), total concentration) was 26.5 µM, the half-life at 14 day ([2]; human, plasma, oral, 300 mg, Period 3, 300 mg BID fasted, Day 14 (N = 7), arithmetic mean ± SD, read-out: t½, terminal half-life (converted)) was 8.04 ± 3.29 h and the Cmax at 14 day ([2]; human, plasma, oral, 300 mg, Period 3, 300 mg BID fasted, Day 14 (N = 7), geometric mean (%CV)) was 8380 ng/mL. The AUC ([2]; human, plasma, oral, 300 mg, Period 3, 300 mg BID fasted, Day 14 (N = 7), geometric mean (%CV), read-out: AUCtau) was 71200 ng·h/mL, the Tmax at 14 day ([2]; human, plasma, oral, 300 mg, Period 3, 300 mg BID fasted, Day 14 (N = 7), median (range)) was 2 h and the Cmax at 14 day ([2]; human, plasma, oral, 300 mg, Period 3, 300 mg BID fasted, Day 14 (N = 7), total concentration) was 23.6 µM. The half-life ([2]; human, plasma, oral, 300 mg, similar after single and multiple dosing, 300 mg, read-out: Mean terminal half-life (converted)) was roughly 8 h, the IC50 ([3]; read-out: IC50 for inhibition of glutamate/malate respiration) was roughly 10 µM and the IC50 ([3]; read-out: IC50 for uncoupling activity) was greater than 100 µM.
